What was measured:
[1] = tested on: IGROV-1 cells; test: Comet assay (DNA damage in single cells); type: cell-based, human; details: IGROV-1, 24 h; 100 μM for Cisplatin and Os-Gly
Description: Comet assays were carried out to determine whether the complexes caused DNA damage in single cells. […] Cisplatin DNA-adducts have been shown previously to inhibit DNA migration through electrophoresis presenting as less tail movement. […] Excess dye was removed, and cells were re-suspended in PBS. Samples were analysed by flow cytometry using the BD FACSMelodyTM Cell Sorter (R653880001) and data analysis on FlowJoTM v10 Software (BD Life Sciences).9 2.11 Apoptosis IGROV-1 cells (1 x 106) were seeded in a 6-well plate and incubated for 24 h at 310 K. Stock solutions (200 μM) of the complexes were prepared by dissolving the compound in 5% (v/v) DMSO followed by dilution with DMEM and then diluted to desired concentrations. All complexes (50 μM and 100 μM) were added to the wells and incubated for 24 h. Cell pellets were collected using 0.25% trypsin and centrifuged (500 x g, 5 mins at 277 K). Cell pellets were washed with PBS and then stained with the commercial Apoptosis Detection Kit-FITC Annexin V and PI (BioLegend; San Diego, USA), as per manufacturer's instructions. Briefly, a staining solution of FITC Annexin V (1 unit/100 μL) diluted 1 in 100 and 1 μg/mL PI was added to the cells (30 min, room temperature). Excess dye was removed, and cells were re-suspended in PBS. Samples were analysed by flow cytometry using the BD FACSMelodyTM Cell Sorter (R653880001) and data analysis on FlowJoTM v10 Software (BD Life Sciences).9 2.12 Comet assay IGROV-1 cells (8×10^5 cells per well) were seeded into 6-well plates and incubated for 24 h. Test compounds (50 μM and 100 μM) were added to the wells and incubated at 3 10 K for 24 h. Cells were enzymatically detached using trypsin and cell concentration adjusted to 2×10^4 cells /mL in ice-cold PBS. 0.4 mL of cell suspension was added to 1.2 mL of 1% low melting point agarose in H 2O, then immediately added to microscope slides pre -coated in 1% agarose. […] Twenty comet images per sample were taken by confocal microscopy and analysed by OpenComet. […]

[2] = tested on: IGROV-1 ovarian carcinoma cells; test: Antiproliferative activity, SRB assay; type: cell-based, human; details: for IC50: IGROV-1, SRB assay, 24 h treatment, 72 h recovery
Description: (§1) The antiproliferative activity against human A549 lung, IGROV-1 ovarian, and HeLa cervical cancer cell lines and MRC5 normal lung fibroblasts was determined by the sulforhodamine B (SRB) assay. […] IGROV-1 is known to be cisplatin-sensitive and subject to hypermutation.
(§2) 2.8 Mammalian cell culture
(§3) The human ovarian cancer cell line, IGROV-1; the human cervical cancer cell line, HeLa; the human […]; and the human non-cancerous lung fibroblast cell line, MRC5 were cultured in DMEM supplemented with 10% FBS and 100 units/mL of penicillin and 100 µg/mL of streptomycin (1x pen/strep). All cell lines were incubated at 310 K with 5% CO2 and 95% humidity for routine maintenance and during drug treatment.
(§4) 2.9 Sulforhodamine (SRB) cytotoxicity assay
(§5) Cells were seeded at 5 × 10^3 cells per well and incubated at 310 K for 48 h. Stock solutions (200 µM) of the complexes were prepared by dissolving the compound in 5% (v/v) DMSO followed by dilution with DMEM and serial dilutions with DMEM were prepared (0.1 µM-200 The cells were exposed to the drug for 24 h. The drug was then removed, and cells were allowed to recover for 72 h, in drug-free media. Cell viability was then determined by the SRB colorimetric assay. The solubilised dye absorbance was analysed on a microplate reader (Thermo Scientific Multiskan FC with Scanit software 4.1) at 470 nm. Data were normalized using Microsoft Excel, and dose-response curves fitted using Origin 2016. The IC50 values

[3] = tested on: MRC-5 normal lung fibroblasts; test: Antiproliferative activity, SRB assay; type: cell-based, human; details: for IC50: MRC-5, SRB assay, 24 h treatment, 72 h recovery
Description: as §1, §2, §3, §4, §5

[4] = tested on: A549 lung carcinoma cells; test: Antiproliferative activity, SRB assay; type: cell-based, human; details: A549; SRB assay, 24 h treatment, 72 h recovery
Description: as §1, §2, §3, §4, §5

[5] = tested on: IGROV-1 human ovarian cancer cells; test: Cell cycle arrest by flow cytometry (PI); type: cell-based; details: 24 h treatment; for Progression to G2/M: IGROV-1, 50 or 100 μM
Description: 2 Effect of Os/Ru-LBSO and glycine complexes at 50 or 100 μM on the phases of the cell cycle of IGROV-1 human ovarian cancer cells compared with untreated (control) cells. Percentage of cells in G1 (black bar, cell growth), S (gray, DNA synthesis), G2/M, (white, growth/mitosis) as determined by flow cytometry after 24 h treatment with complexes. […] Standard deviations calculated for N = 3 *p-value <0.05 comparing to untreated sample.
as §2
as §3, with “treatment. […]” for “treatment.”
IGROV-1 cells (1 x 10^6 cells per well) were seeded in a 6-well plate and incubated for 24 h at 310 K. Stock solutions (200 µM) of the complexes were prepared by dissolving the compound in 5% (v/v) DMSO followed by dilution with DMEM and then diluted to desired concentrations. All complexes (50 µM and 100 µM) were added to the wells and incubated for 24 h. Cell pellets were collected using 0.25% trypsin and centrifuged (500 x g, 5 mins at 4 °C). Then washed in PBS and fixed with 100% ice-cold ethanol for 20 min on ice. The ethanol […]
was aspirated, cells washed in ice-cold PBS and then stained with 0.2 mg/mL RNase, 0.05 mg/mL propidium iodide (PI) in PBS for 25 min in the dark and on ice. Excess dye was removed, and cells were re-suspended in PBS. Samples were analysed by flow cytometry using the BD

[6] = tested on: HeLa cervical adenocarcinoma cells; test: Antiproliferative activity, SRB assay; type: cell-based, human; details: SRB assay, 24 h treatment, 72 h recovery
Description: as §1, §2, §3, §4
as §5, with “µM-200 µM).” for “µM-200”

[7] = Aqueous stability / hydrolysis monitored by 1H NMR; type: physicochemical; details: 3:7 v/v methanol-d4:D2O, 310 K, 1H NMR
[8] = tested on: intracellular GSH in IGROV-1 cells; test: Glutathione colorimetric detection assay; type: cell-based, human; details: IGROV-1, 50 μM, 24 h
Description: This lowering was not observed for Ru-LBSO which is not active in this cell line. Other papers have shown a similar result by including L-BSO as an additional agent, therefore showing L-BSO remains inhibitory.
Once the agarose had set , the slides were submerged in alkaline lysis solution (1.3 M NaCl, 100 mM Na2EDTA, 0.1% sodium lauryl sarcosinate, 0.26 M NaOH pH > 13) and incubated overnight at 277 K in the dark. The following day the slides were rinsed for 20 min three times in the electrophoresis solution ([…] NaOH, 2mM Na 2EDTA pH 12.3). The slides were then placed into the electrophoresis tank with fresh electrophoresis buffer, 1 -2 mm above the slides. Electrophoresis was run at 18.3 V for 25 min. Once electrophoresis was complete, slides were rinsed in distilled water and placed in 2.5 µg/mL PI for 20 min. After staining, cells were rinsed in distilled water to remove excess stain. Twenty comet images per sample were taken by confocal microscopy and analysed by OpenComet. 10
1 x 10^6 IGROV-1 cells were seeded in a 6-well plate and incubated for 24 h at 310 K. All complexes (50 µM and 100 µM) were added to the wells and incubated for 24 h. […]
Percentage of IGROV -1 cancer cells in non -apoptotic, apoptotic (early and late) or necrotic phases determined by flow cytometry after 24 h treatment with Os/Ru L -BSO and glycine complexes. […] Standard deviations calculated for N=3. […]

Row | Compound | Comet tails vs untreated cells [1] | IC50 [2] | IC50 [3] | IC50 [4] | Progression to G2/M [5] | IC50 [6] | Time to hydrolysis [7] | Activity against IGROV-1 ([2]; IGROV-1, SRB) | Activity toward normal lung cells ([3]; MRC-5, SRB) | Lowering of intracellular GSH level [8] | G1 arrest (percentage of cells in G1) ([5]; IGROV-1, 100 μM, vs untreated)
1 | [NH2][Pt]([NH2])([Cl])[Cl] [CDDP, Cisplatin, reference compound] | statistically significantly shorter comet tails | 20 ± 4.8 µM | 13.5 ± 0.9 µM | 3 ± 0.2 µM | – | – | – | – | – | – | –
2 | Cc1ccc(C(C)C)cc1.O=C1C[NH][Os]([Cl])[O]1 [Os-Gly, [(p-cymene)Os(Gly)Cl]] | statistically significantly shorter comet tails | > 200 µM | 107 ± 2 µM | > 200 µM | little progression to G2/M | > 200 µM | – | – | – | – | –
3 | Cc1ccc(C(C)C)cc1.O=C1C[NH][Ru]([Cl])[O]1 [Ru-Gly, [(p-cymene)Ru(Gly)Cl]] | – | > 200 µM | 112 ± 4 µM | > 200 µM | little progression to G2/M | > 200 µM | – | – | – | – | –
4 | [(p-cymene)Ru(L-BSO)Cl] [Ru-LBSO] | – | 108 ± 8 µM | 4.3 ± 0.7 µM | > 200 µM | – | > 200 µM | ≤ 15 min | not active | some activity | not observed | significantly increased
